Data on one compound can be found in article PMC8661809 (Protein Science : A Publication of the Protein Society, 2021).

The target in this assay is CTD of SARS‐CoV‐2 N protein (Severe acute respiratory syndrome coronavirus 2, UniProt P0DTC9). As to the kind of experiment: biochemical. Format: binding.

The compound `Nc1ncnc2c1ncn2[C@@H]1O[C@H](COP(=O)(O)OP(=O)(O)OP(=O)(O)O)[C@@H](O)[C@H]1O` [ATP] had a Kd of 1490 ± 280 µM.
